Results as given in US12509460B2 (Skyhawk Therapeutics, Inc., priority 2019, dated 2025).
Like-named read-outs stand apart in the source and are kept apart here.

What was measured:
[1] = test system: MDR1-MDCK cell monolayers; conditions: dog, MDCK-MDR1, 120 min, 5 μM, pH 7.4
[2] = test system: mHTT protein in GM04724 (CAG 70/20) Huntington's disease patient lymphoblast cells; test: mHTT protein assay, 2B7-MW1 assay via Mesoscale Discovery (MSD); type: cell-based, human
In short: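 Signal from the 2B7-MW1 antibody pair on MSD, rising with polyQ length and smaller HTT fragments, measured mHTT after 48 h compound exposure (0.6 nM–10 μM) in GM04724 cells. A parallel replicate plate gave CellTiter Glo viability.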

MDR1 = test: in vitro; conditions: dog, MDCK-MDR1, pH 7.4
MDR1 (P-gp) = test: in vitro; conditions: dog, MDCK-MDR1, pH 7.4
[3] = test system: SMN protein in spinal muscular atrophy (SMA) patient fibroblasts (GM03813, Coriell); test: SMN protein assay, Mesoscale Discovery (MSD); type: cell-based, human; conditions: for EC50: read-out: SMN2 protein EC50
In short: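 Absolute SMN levels were quantified by MSD against an SMN protein standard curve (1 μg/ml to 19.5 pg/ml) run on each plate. Samples were lysates of GM03813 patient fibroblasts (7000 cells/well) treated 48 hours with compound doses from 2.5 μM down to 0.6 nM.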

[4] = GM04724 Huntington's disease patient lymphoblasts
[5] = SMA patient fibroblasts GM03813, 48 hours, MSD
[6] = GM04724 (CAG 70/20) Huntington's disease patient lymphoblasts
[7] = SMA patient fibroblasts (GM03813), 48 hours

Row | Structure (SMILES) | MDCK-MDR1: % Recov A-B [1] [%] | MDCK-MDR1: % Recov B-A [1] [%] | mHTT protein EC50 [2, 4] | efflux ratio at 120 min, 5 μM (MDR1) | Papp A→B at 120 min, 5 μM (MDR1 (P-gp)) [×10⁻⁶ cm/s] | Papp B→A at 120 min, 5 μM (MDR1 (P-gp)) [×10⁻⁶ cm/s] | SMN2 protein EC50 [3, 5] | mHTT protein EC50 [2, 6] | SMN2 protein EC50 [3, 7] | EC50 [3, 5] [nM] | EC50 [2, 4] [nM] | EC50 [3, 7] [nM]
1 | CN(C)C(=O)c1cc(O)c(-c2ccc(N(C)[C@@H]3C[C@H]4CC[C@H](N4)[C@@H]3F)nn2)cc1F (single isomer, unassigned) [Compound 53A] | 96 | 114 | E (501 ≤ E ≤ 10.000) | 127 | 0.32 | 41 | E (501 ≤ E ≤ 10.000) |  |  |  |  | 
2 | CN(c1ccc(-c2ccc(Oc3nccn3C)cc2O)nn1)[C@@H]1C[C@H]2CC[C@H](N2)[C@@H]1F (single isomer, unassigned) [Compound 123A] | 97 | 102 |  | 79 | 0.76 | 59.7 |  | E (501 ≤ E ≤ 10.000) | E (501 ≤ E ≤ 10.000) |  |  | 
3 | CN(c1ccc(-c2cc3ncn(CC(F)(F)F)c(=O)c3cc2O)nn1)[C@@H]1C[C@H]2CC(F)(F)[C@@H](C1)N2C (single isomer, unassigned) [Compound 110A] | 80 | 92 |  | 4 | 11 | 44.4 |  | E (501 ≤ E ≤ 10.000) | E (501 ≤ E ≤ 10.000) |  |  | 
4 | CN(c1ccc(-c2cn3c(=O)ccnc3cc2O)nn1)[C@H]1C[C@@H]2CC[C@@H](N2)[C@H]1F (single isomer, unassigned) [Compound 82B] | 72 | 110 | E (501 ≤ E ≤ 10.000) | > 15 | < 0.21 | 3.28 |  |  |  | 101 to 500 |  | 
5 | CN(c1ccc(-c2cn3c(=O)ccnc3cc2O)nn1)[C@@H]1C[C@H]2CC[C@H](N2)[C@@H]1F (single isomer, unassigned) [Compound 82A] | 104 | 121 | E (501 ≤ E ≤ 10.000) | 40 | 0.08 | 3.33 |  |  |  | 101 to 500 |  | 
6 | CN(c1ccc(-c2cc3ccn(C)c(=O)c3cc2O)nn1)[C@@H]1C[C@H]2CC[C@@H]([C@@H]1F)N2C (single isomer, unassigned) [Compound 97A] | 73 | 74 | E (501 ≤ E ≤ 10.000) | 20 | 1.96 | 40.3 |  |  |  | 101 to 500 |  | 
7 | CCc1cn(-c2ccc(-c3ccc(N(C)[C@H]4C[C@@H]5CC(F)(F)[C@H](C4)N5)nn3)c(O)c2)cn1 [Compound 18B, 2-(6-(((1R,3S,5S)-6,6-difluoro-8-azabicyclo[3.2.1]octan-3-yl)(methyl)amino)pyridazin-3-yl)-5-(4-ethyl-1H-imidazol-1-yl)phenol] | 55 | 69 |  | 4 | 8.37 | 35.6 | E (501 ≤ E ≤ 10.000) |  |  |  | 101 to 500 | 
8 | CN1[C@H]2CC[C@@H]1[C@@H](F)[C@@H](N(c1ccc(-c3cc4ncn(CC(F)(F)F)c(=O)c4cc3O)nn1)C1CC1)C2 (single isomer, unassigned) [Compound 111B] | 74 | 56 |  | 54 | 0.66 | 35.9 |  | E (501 ≤ E ≤ 10.000) | E (501 ≤ E ≤ 10.000) |  |  | 
9 | CN(c1ccc(-c2ccc(C3CC3)cc2O)nn1)[C@@H]1C[C@H]2CC[C@H](N2)[C@@H]1F (single isomer, unassigned) [Compound 31A] | 45 | 66 | E (501 ≤ E ≤ 10.000) | 4 | 8.77 | 31.3 | E (501 ≤ E ≤ 10.000) |  |  |  |  | 
10 | CN(c1ccc(-c2cc3ncn(CC(F)(F)F)c(=O)c3cc2O)nn1)[C@H]1C[C@@H]2CC[C@H]([C@H]1F)N2C (single isomer, unassigned) [Compound 108B] | 102 | 101 |  | 61 | 0.98 | 59.5 |  | E (501 ≤ E ≤ 10.000) | E (501 ≤ E ≤ 10.000) |  |  | 
11 | Cc1cc(=O)c2cc(O)c(-c3ccc(N(C)[C@@H]4C[C@H]5CC[C@@H]([C@@H]4F)N5C)nn3)cc2o1 [Compound 99A, 7-(6-(((1S,2S,3R,5R)-2-fluoro-8-methyl-8-azabicyclo[3.2.1]octan-3-yl)(methyl)amino)pyridazin-3-yl)-6-hydroxy-2-methyl-4H-chromen-4-one] | 114 | 91 |  | 18 | 2 | 36.3 |  | E (501 ≤ E ≤ 10.000) |  |  |  | 101 to 500
12 | CN(c1ccc(-c2ccc(-n3cnc(C(=O)NC(C)(C)C)c3)cc2O)nn1)[C@@H]1C[C@H]2CC[C@H](N2)[C@@H]1F (single isomer, unassigned) [Compound 124A] | 78 | 78 |  | 133 | 0.34 | 45.7 |  | E (501 ≤ E ≤ 10.000) |  |  |  | 101 to 500
13 | Cc1nc2cc(-c3ccc(N(C)[C@@H]4C[C@H]5CC[C@@H]([C@@H]4F)N5C)nn3)c(O)cc2c(=O)n1CC(F)(F)F (single isomer, unassigned) [Compound 130A] | 105 | 116 |  | 113 | 0.67 | 75.4 |  | E (501 ≤ E ≤ 10.000) | E (501 ≤ E ≤ 10.000) |  |  | 
14 | CN(c1ccc(-c2cc(C#N)c(F)cc2O)nn1)[C@@H]1C[C@H]2CC[C@H](N2)[C@@H]1F [Compound 72A, 2-fluoro-5-(6-(((1S,2S,3R,5R)-2-fluoro-8-azabicyclo[3.2.1]octan-3-yl)(methyl)amino)pyridazin-3-yl)-4-hydroxybenzonitrile] | 88 | 77 | E (501 ≤ E ≤ 10.000) | 3 | 11.6 | 39.9 | E (501 ≤ E ≤ 10.000) |  |  |  |  | 
15 | CN(C)C(=O)c1cc(O)c(-c2ccc(N(C)[C@H]3C[C@@H]4CC[C@@H](N4)[C@H]3F)nn2)cc1F (single isomer, unassigned) [Compound 53B] | 100 | 112 | E (501 ≤ E ≤ 10.000) | 153 | 0.27 | 41.8 | E (501 ≤ E ≤ 10.000) |  |  |  |  | 
16 | CN(c1ccc(-c2ccc(C3CC3)cc2O)nn1)[C@H]1C[C@@H]2CC[C@@H](N2)[C@H]1F (single isomer, unassigned) [Compound 31B] | 43 | 74 | E (501 ≤ E ≤ 10.000) | 4 | 7.08 | 27 | E (501 ≤ E ≤ 10.000) |  |  |  |  | 
